From publication PMC2873968, “Novel protein kinase D inhibitors cause potent arrest in prostate cancer cell growth and motility” (BMC Chemical Biology, 2010)

Legend:
AurA = AurA (Homo sapiens, UniProt O14965); assay: Kinase profiling, single-dose in vitro kinase assay (Caliper Life Sciences); conditions: read-out: Average % Inhibition AurA
ABL = ABL (Homo sapiens, UniProt P00519); assay: as above; conditions: read-out: Average % Inhibition ABL
SGK1 = SGK1 (Homo sapiens, UniProt O00141); assay: as above; conditions: read-out: Average % Inhibition SGK1
EGFR = EGFR (Homo sapiens, UniProt P00533); assay: as above; conditions: read-out: Average % Inhibition EGFR
Sequence of EGFR (P00533 25-1210): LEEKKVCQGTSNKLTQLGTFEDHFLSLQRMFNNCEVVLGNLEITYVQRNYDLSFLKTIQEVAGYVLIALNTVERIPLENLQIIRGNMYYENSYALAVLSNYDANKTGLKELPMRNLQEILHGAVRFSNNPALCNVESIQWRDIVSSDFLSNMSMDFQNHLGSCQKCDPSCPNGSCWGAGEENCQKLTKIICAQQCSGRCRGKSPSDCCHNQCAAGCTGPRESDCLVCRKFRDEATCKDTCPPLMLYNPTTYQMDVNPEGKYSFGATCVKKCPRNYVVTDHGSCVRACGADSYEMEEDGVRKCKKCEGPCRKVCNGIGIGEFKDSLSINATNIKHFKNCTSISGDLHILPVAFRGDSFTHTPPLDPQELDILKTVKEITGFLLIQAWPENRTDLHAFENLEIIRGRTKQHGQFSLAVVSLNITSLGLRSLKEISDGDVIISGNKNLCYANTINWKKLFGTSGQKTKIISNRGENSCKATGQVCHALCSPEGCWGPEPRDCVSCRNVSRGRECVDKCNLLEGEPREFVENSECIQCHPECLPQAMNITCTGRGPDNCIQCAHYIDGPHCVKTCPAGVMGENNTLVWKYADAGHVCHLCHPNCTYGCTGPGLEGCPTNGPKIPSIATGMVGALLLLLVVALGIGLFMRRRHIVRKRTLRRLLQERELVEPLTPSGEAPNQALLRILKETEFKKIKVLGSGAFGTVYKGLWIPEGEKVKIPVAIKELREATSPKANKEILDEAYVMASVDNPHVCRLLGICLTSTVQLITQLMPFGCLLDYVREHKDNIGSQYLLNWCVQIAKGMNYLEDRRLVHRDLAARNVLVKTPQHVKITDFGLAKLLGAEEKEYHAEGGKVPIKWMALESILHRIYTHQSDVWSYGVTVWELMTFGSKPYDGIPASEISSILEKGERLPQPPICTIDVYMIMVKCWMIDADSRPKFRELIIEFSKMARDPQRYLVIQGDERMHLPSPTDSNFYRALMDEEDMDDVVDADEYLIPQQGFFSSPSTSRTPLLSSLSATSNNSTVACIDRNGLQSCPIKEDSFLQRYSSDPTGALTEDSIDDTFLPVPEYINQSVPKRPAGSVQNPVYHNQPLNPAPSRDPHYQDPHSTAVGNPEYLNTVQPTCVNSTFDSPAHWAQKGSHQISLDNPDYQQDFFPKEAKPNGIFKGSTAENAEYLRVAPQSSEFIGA

SRC = SRC (Homo sapiens, UniProt P12931); assay: as above; conditions: read-out: Average % Inhibition SRC
MSK1 = MSK1 (Homo sapiens, UniProt O75582); assay: as above; conditions: read-out: Average % Inhibition MSK1
PKG1α = PKG1α (Homo sapiens, UniProt Q13976); assay: as above; conditions: read-out: Average % Inhibition PKG1α
CAK = tested on: CAK; set-up: method as in PMID 18829454; conditions: previously reported; cited from earlier work
PKCθ = PKCθ (Homo sapiens, UniProt Q04759); assay: Kinase profiling, single-dose in vitro kinase assay (Caliper Life Sciences); conditions: read-out: Average % Inhibition PKCθ
Erk2 = Erk2 (Homo sapiens, UniProt P28482); assay: as above; conditions: read-out: Average % Inhibition Erk2
Sequence of Erk2 (P28482 whole entry): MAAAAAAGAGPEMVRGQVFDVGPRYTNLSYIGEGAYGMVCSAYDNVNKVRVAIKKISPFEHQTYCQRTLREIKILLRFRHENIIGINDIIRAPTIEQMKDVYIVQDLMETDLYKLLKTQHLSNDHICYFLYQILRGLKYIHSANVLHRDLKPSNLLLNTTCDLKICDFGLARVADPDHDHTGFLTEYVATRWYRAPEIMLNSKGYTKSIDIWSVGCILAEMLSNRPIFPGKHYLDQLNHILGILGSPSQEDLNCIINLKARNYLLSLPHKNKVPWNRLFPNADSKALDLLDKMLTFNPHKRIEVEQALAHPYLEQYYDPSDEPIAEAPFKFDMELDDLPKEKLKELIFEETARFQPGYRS

PKD2 = molecular target: T1, PKD2 (Homo sapiens, UniProt Q9BZL6); assay: as above; conditions: read-out: Average % Inhibition PKD2
T1 sequence (Q9BZL6 1-878): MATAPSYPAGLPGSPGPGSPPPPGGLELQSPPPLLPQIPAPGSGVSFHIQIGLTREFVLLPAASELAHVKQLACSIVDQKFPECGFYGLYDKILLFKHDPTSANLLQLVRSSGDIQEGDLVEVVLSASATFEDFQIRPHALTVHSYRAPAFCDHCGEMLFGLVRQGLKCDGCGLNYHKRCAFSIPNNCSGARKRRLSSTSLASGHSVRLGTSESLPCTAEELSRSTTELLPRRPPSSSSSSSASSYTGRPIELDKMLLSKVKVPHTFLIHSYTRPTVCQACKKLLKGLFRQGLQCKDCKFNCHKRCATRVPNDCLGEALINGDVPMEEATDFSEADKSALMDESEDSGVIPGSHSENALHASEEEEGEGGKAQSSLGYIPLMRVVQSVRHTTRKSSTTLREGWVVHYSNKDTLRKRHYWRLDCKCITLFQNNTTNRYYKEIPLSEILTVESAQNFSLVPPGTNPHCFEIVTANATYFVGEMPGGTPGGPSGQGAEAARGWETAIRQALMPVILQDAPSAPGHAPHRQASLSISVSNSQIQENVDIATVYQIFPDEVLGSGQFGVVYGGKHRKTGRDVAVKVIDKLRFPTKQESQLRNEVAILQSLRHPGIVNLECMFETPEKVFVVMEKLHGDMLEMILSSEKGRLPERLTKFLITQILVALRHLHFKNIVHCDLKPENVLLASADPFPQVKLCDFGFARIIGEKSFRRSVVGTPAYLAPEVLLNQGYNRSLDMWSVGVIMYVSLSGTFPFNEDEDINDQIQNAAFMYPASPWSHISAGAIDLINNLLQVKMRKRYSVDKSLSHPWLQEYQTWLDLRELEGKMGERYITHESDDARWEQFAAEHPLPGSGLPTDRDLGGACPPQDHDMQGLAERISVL

PKG1β = PKG1β (Homo sapiens, UniProt Q13976); assay: as above; conditions: read-out: Average % Inhibition PKG1β
Sequence of PKG1β (Q13976 1-686 isoform Q13976-2): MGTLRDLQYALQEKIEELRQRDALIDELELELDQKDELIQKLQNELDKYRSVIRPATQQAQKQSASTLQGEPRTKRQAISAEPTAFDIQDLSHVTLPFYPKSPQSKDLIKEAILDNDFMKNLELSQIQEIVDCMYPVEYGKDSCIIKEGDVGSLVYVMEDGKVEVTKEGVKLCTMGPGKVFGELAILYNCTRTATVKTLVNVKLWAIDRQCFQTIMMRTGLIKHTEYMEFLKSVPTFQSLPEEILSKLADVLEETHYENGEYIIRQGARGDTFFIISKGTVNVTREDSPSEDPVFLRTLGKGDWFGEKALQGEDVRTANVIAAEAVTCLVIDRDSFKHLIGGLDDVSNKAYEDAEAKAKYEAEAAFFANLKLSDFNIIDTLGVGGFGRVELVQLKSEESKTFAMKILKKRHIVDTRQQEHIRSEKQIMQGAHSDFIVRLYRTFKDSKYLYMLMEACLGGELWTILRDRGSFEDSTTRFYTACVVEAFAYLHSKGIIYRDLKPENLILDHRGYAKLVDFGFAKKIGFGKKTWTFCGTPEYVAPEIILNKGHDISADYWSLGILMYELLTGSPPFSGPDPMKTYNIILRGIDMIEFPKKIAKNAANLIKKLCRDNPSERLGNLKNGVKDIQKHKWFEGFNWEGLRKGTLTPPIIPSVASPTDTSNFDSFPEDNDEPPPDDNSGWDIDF

Erk1 = Erk1 (Homo sapiens, UniProt P27361); assay: as above; conditions: read-out: Average % Inhibition Erk1, 10 μM
Sequence of Erk1 (P27361 whole entry): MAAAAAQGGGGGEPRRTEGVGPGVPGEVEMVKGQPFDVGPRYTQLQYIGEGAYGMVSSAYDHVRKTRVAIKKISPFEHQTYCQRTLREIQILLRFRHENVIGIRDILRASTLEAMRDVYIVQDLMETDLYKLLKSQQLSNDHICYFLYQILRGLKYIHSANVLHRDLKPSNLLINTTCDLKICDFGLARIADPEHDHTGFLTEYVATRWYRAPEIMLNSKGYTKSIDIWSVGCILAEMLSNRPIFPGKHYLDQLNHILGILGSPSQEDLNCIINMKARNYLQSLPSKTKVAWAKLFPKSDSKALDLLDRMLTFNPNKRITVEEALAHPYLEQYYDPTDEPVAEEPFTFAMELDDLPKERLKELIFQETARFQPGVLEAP

IBSR = IBSR (Homo sapiens, UniProt P06213); assay: as above; conditions: read-out: Average % Inhibition IBSR
Sequence of IBSR (P06213 28-1382): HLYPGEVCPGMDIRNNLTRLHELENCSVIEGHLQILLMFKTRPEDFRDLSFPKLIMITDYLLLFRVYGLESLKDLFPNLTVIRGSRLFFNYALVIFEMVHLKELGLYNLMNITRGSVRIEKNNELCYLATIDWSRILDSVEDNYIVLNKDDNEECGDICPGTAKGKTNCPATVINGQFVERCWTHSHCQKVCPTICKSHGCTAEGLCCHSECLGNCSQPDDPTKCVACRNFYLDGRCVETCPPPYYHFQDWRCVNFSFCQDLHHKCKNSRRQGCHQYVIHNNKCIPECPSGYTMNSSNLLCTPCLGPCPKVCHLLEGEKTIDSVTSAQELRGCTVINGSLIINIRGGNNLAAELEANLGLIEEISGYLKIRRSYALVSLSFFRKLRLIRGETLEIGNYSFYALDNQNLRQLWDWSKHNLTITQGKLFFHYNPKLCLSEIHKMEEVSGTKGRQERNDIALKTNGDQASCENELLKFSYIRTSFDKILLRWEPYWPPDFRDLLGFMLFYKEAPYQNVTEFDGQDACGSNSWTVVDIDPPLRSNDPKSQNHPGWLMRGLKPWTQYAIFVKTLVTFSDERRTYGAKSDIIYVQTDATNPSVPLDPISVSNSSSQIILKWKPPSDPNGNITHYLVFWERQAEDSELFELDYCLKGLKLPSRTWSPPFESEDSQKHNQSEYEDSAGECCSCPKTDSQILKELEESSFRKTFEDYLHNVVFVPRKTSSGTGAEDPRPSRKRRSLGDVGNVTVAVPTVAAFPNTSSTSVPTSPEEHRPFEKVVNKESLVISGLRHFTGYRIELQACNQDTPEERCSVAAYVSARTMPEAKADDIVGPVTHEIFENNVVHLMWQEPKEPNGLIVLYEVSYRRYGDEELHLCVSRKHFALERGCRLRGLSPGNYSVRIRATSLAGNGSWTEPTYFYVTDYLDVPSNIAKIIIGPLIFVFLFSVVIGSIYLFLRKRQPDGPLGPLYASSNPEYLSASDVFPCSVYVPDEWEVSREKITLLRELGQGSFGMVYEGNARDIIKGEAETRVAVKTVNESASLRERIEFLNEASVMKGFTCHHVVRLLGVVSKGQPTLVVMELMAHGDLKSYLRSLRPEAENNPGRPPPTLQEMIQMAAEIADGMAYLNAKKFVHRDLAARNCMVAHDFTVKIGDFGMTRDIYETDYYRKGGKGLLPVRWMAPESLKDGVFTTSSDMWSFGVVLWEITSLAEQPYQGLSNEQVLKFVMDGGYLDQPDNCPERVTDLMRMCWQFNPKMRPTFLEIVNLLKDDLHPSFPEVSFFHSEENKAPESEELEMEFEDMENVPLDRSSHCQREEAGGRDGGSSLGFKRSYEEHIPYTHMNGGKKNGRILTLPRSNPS

CAMKIIα = molecular target: T2, CAMKIIα (Homo sapiens, UniProt Q9UQM7); assay: In vitro radiometric CAMK kinase assay; assay type: biochemical
T2 construct: purchased Enzo Life Sciences
Protocol: In vitro radiometric kinase assays were conducted as previously described. Briefly, 1 μCi [γ-^32P] ATP (PerkinElmer Life Sciences), 70 μM ATP, 50 ng purified recombinant human PKD1 (Biomol International, Plymouth Meeting, PA), PKD2 (SignalChem, Richmond, BC, Canada), or CAMKIIα (Enzo Life Sciences) or 75 ng PKD3 (Enzo Life Sciences), and 2.5 μg syntide-2 (Sigma) in 50 μl kinase buffer containing 50 mM Tris-HCl, pH 7.5, 4 mM MgCl2, and 10 mM β-mercaptoethanol. For the CAMK assay, 0.5 mM CaCl2 and 30 ng/μl calmodulin were pre-incubated for 10 min on ice, and then added to each reaction mixture. The reaction was incubated at 30°C for 10 min, and 25 μl of the reaction mixture was then spotted onto Whatman P81 filter paper (Whatman Inc., Clifton, NJ). The filter papers were washed 3 times in 0.5% phosphoric acid, air-dried, and counted using a Beckman LS6500 multipurpose scintillation counter (Beckman).
To determine whether the novel analogs retained this specificity, we tested the compounds against their ability to inhibit PKCα, -βI, -δ, and CAMKIIα in in vitro radiometric kinase activity assays.
Inhibition of PKCα (A), PKCβI (B), PKCδ (C), or CAMKIIα (D) by each of the 5 analogs was determined at 100 nM, 1 μM, and 10 μM concentrations. […] Statistical significance was determined using the unpaired t-test. ns, not statistically significant; *, p < 0.05; **, p < 0.01; ***, p < 0.001.

Sequence of ABL (P00519 whole entry): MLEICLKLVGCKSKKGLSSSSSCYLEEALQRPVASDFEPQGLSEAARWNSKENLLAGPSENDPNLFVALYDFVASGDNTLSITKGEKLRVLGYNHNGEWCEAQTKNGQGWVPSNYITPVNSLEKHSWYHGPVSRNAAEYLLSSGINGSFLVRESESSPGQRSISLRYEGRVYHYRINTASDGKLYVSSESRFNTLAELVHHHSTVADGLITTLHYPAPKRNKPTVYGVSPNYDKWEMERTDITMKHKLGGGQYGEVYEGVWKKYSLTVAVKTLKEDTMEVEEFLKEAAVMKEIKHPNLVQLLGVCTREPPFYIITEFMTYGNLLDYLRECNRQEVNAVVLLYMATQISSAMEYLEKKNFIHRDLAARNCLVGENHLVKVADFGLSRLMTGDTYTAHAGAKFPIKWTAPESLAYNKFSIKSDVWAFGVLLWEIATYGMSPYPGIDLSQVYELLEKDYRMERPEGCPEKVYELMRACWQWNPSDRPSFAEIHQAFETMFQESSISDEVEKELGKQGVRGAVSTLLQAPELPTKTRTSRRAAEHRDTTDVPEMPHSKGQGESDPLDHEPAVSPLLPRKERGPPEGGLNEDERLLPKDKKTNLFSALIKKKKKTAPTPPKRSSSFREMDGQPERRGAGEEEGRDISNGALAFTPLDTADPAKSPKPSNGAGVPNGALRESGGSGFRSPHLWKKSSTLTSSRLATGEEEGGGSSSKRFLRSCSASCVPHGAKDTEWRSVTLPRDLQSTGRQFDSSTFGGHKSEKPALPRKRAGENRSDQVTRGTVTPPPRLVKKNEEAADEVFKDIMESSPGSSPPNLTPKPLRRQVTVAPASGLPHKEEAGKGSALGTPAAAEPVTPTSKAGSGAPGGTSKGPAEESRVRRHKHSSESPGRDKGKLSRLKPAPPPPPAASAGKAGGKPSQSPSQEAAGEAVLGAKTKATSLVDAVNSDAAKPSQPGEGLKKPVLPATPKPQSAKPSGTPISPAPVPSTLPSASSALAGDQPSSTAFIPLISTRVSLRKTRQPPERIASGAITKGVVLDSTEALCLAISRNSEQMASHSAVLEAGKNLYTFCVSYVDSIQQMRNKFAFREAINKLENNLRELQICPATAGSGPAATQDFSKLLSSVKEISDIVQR

Compound	inhibition at 10 µM (AurA) [%]	inhibition at 10 µM (ABL) [%]	inhibition at 10 µM (SGK1) [%]	inhibition at 10 µM (EGFR) [%]	inhibition at 10 µM (SRC) [%]	inhibition at 10 µM (MSK1) [%]	inhibition at 10 µM (PKG1α) [%]	inhibition of CAK (CAK)	inhibition at 10 µM (PKCθ) [%]	inhibition at 10 µM (Erk2) [%]	inhibition at 10 µM (PKD2) [%]	inhibition at 10 µM (PKG1β) [%]	inhibition at 10 µM (Erk1) [%]	inhibition at 10 µM (IBSR) [%]	inhibition of CAMKIIα (in words) (CAMKIIα)	inhibition at 10 µM (CAMKIIα; 10 μM) [%]
O=C1NCCCc2c1oc1ccc(O)cc21 [CID755673, 7-Hydroxy-2,3,4,5-tetrahydro-[1]benzoxolo[2,3-c]azepin-1-one]	7	8	9	11	7	7	13	did not inhibit	32	31	95	11	≥ 50	3		
O=C1NCCSc2c1sc1ccc(O)c(I)c21 [kb-NB165-31]															significant inhibitory activity	~70
